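Assay format: 96-well plates, 48-hour exposure. Here, GI50 denotes the concentration required for 50% inhibition of growth. TGI: concentration producing complete growth inhibition.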 *1 amine or outer side, *2 acyl side, *3 side chain or, on linkers, in order; H or OH if unused. Where a SMILES comes first, the peptide text is derived from it. [ ]: non-standard residue; d: D form. The star is where a group is joined. ξ: configuration not given here. X11 = CCC(=O)CC(O)CC(C)CC(N[*:1])C(=O)[*:2]; ξLeu(3ξ-OH) = CC(C)C(O)C(N)C(=O)O; ξPro(4ξ-Me) = CC1CNC(C(=O)O)C1; X10 = CCC(C)/C=C/C(=O)*; Aib = CC(C)(N)C(=O)O; X12 = CC(CN(C)C)N*; βAla = NCCC(=O)O
Experiments:
Assay in all cases: growth of human tumour cells (NCI), 48 h
[1] = tested on: NCI-H23 lung
[2] = tested on: MALME-3M melanoma
[3] = tested on: MDA-MB-435
[4] = tested on: OVCAR-3 ovarian
[5] = tested on: SF-539 CNS
[6] = tested on: SK-MEL-28 melanoma
[7] = tested on: UACC-62 melanoma
[8] = tested on: HT29 colon
[9] = tested on: HCT-15 colon
[10] = tested on: NCI/ADR-RES ovarian
[11] = tested on: SW-620 colon
[12] = tested on: SK-MEL-5 melanoma
[13] = tested on: NCI-H226 lung
[14] = tested on: OVCAR-8 ovarian
[15] = tested on: NCI-H460 lung
[16] = tested on: SF-295 CNS
[17] = tested on: KM12 colon
[18] = tested on: T-47D breast
[19] = tested on: K-562 leukemia
[20] = tested on: M14 melanoma
[21] = tested on: SR leukemia
[22] = tested on: LOX IMVI melanoma
[23] = tested on: SK-OV-3 ovarian
[24] = tested on: HCC-2998 colon
[25] = tested on: MDA-MB-231 breast
[26] = tested on: BT-549 breast
[27] = tested on: HCT-116 colon
[28] = tested on: UACC-257 melanoma
[29] = tested on: HOP-62 NSCLC
[30] = tested on: IGROV1 ovarian
[31] = tested on: MCF7 breast
[32] = tested on: U251 CNS
[33] = tested on: A549 NSCLC
[34] = tested on: SN12C renal
[35] = tested on: SF-268 CNS
[36] = tested on: HOP-92 NSCLC
[37] = tested on: DU-145 prostate
[38] = tested on: RPMI-8226 leukemia
[39] = tested on: HL-60(TB) leukemia
[40] = tested on: SNB-19 CNS
[41] = tested on: PC-3 prostate
[42] = tested on: 786-0 renal
[43] = tested on: EKVX NSCLC
[44] = tested on: ACHN renal
[45] = tested on: CAKI-1 renal
[46] = tested on: UO-31 renal
[47] = tested on: COLO 205 colon
[48] = tested on: OVCAR-4 ovarian
[49] = tested on: A498 renal
[50] = tested on: MOLT-4 leukemia
[51] = tested on: HS 578T breast
[52] = tested on: RXF 393 renal
[53] = tested on: OVCAR-5 ovarian
[54] = tested on: CCRF-CEM leukemia
[55] = tested on: TK-10 renal

CO[C@@H]1[C@H](N(C)C(=O)c2ccccc2)C[C@@H]2O[C@]1(C)n1c3ccccc3c3c4c(c5c6ccccc6n2c5c31)C(=O)NC4=O
GI50 [1]: 842 nM | TGI [1]: > 100000 nM | GI50 [2]: 732 nM | TGI [2]: > 100000 nM | GI50 [3]: 775 nM | TGI [3]: > 100000 nM | GI50 [4]: 6280 nM | TGI [4]: > 100000 nM | GI50 [5]: 1080 nM | TGI [5]: 59800 nM | GI50 [6]: > 100000 nM | TGI [6]: > 100000 nM | GI50 [7]: 540 nM | TGI [7]: > 100000 nM | GI50 [8]: 745 nM | TGI [8]: > 100000 nM | GI50 [9]: 766 nM | TGI [9]: > 100000 nM | GI50 [10]: 5750 nM | TGI [10]: > 100000 nM | GI50 [11]: 732 nM | TGI [11]: > 100000 nM | GI50 [12]: 797 nM | TGI [12]: > 100000 nM | GI50 [13]: 303 nM | TGI [13]: > 100000 nM | GI50 [14]: 94600 nM | TGI [14]: > 100000 nM | GI50 [15]: 646 nM | TGI [15]: > 100000 nM | GI50 [16]: 1450 nM | TGI [16]: > 100000 nM | GI50 [17]: 391 nM | TGI [17]: > 100000 nM | GI50 [18]: 811 nM | TGI [18]: > 100000 nM | GI50 [19]: 11100 nM | TGI [19]: > 100000 nM | GI50 [20]: 680 nM | TGI [20]: > 100000 nM | GI50 [21]: 504 nM | TGI [21]: > 100000 nM | GI50 [22]: 654 nM | TGI [22]: > 100000 nM | GI50 [23]: 1670 nM | TGI [23]: > 100000 nM | GI50 [24]: > 100000 nM | TGI [24]: > 100000 nM | GI50 [25]: 480 nM | TGI [25]: > 100000 nM | GI50 [26]: 1210 nM | TGI [26]: > 100000 nM | GI50 [27]: 638 nM | TGI [27]: > 100000 nM | GI50 [28]: > 100000 nM | TGI [28]: > 100000 nM | GI50 [29]: 382 nM | TGI [29]: > 100000 nM | GI50 [30]: 523 nM | TGI [30]: > 100000 nM | GI50 [31]: 1840 nM | TGI [31]: > 100000 nM | GI50 [32]: 3600 nM | TGI [32]: > 100000 nM | GI50 [33]: 595 nM | TGI [33]: > 100000 nM | GI50 [34]: 459 nM | TGI [34]: > 100000 nM | GI50 [35]: 763 nM | TGI [35]: > 100000 nM | GI50 [36]: 173 nM | TGI [36]: > 100000 nM | GI50 [37]: 6810 nM | TGI [37]: > 100000 nM | GI50 [38]: > 100000 nM | TGI [38]: > 100000 nM | GI50 [39]: > 100000 nM | TGI [39]: > 100000 nM | GI50 [40]: > 100000 nM | TGI [40]: > 100000 nM | GI50 [41]: 562 nM | TGI [41]: > 100000 nM | GI50 [42]: 744 nM | TGI [42]: > 100000 nM | GI50 [43]: 858 nM | TGI [43]: > 100000 nM | GI50 [44]: 838 nM | TGI [44]: > 100000 nM | GI50 [45]: 232 nM | TGI [45]: 2660 nM | GI50 [46]: 211 nM | TGI [46]: 1460 nM | GI50 [47]: 398 nM | TGI [47]: > 100000 nM | GI50 [48]: 700 nM | TGI [48]: > 100000 nM | GI50 [49]: 206 nM | TGI [49]: 661 nM | GI50 [50]: 1960 nM | TGI [50]: > 100000 nM | GI50 [51]: 461 nM | TGI [51]: > 100000 nM

Cl.Fc1c[c-]c(-c2ccccn2)c(F)c1.[Pt].c1ccc([PH+](c2ccccc2)c2ccccc2[PH+](c2ccccc2)c2ccccc2)cc1
GI50 [3]: 82.5 nM | TGI [3]: 268 nM | GI50 [4]: 62.9 nM | TGI [4]: 211 nM | GI50 [52]: 137 nM | TGI [52]: 296 nM | GI50 [23]: 88.3 nM | TGI [23]: 640 nM | GI50 [53]: 140 nM | TGI [53]: 415 nM | GI50 [28]: 107 nM | TGI [28]: 698 nM | GI50 [29]: 65.5 nM | TGI [29]: 320 nM | GI50 [54]: 78 nM | TGI [54]: 1090 nM | GI50 [37]: 67.7 nM | TGI [37]: 334 nM | GI50 [39]: 39.5 nM | TGI [39]: 321 nM | GI50 [44]: 157 nM | TGI [44]: 460 nM | GI50 [55]: 141 nM | TGI [55]: 689 nM | GI50 [49]: 49.3 nM | TGI [49]: 215 nM

CCC(=O)CC(O)CC(C)CC(NC(=O)C1CC(C)CN1C(=O)/C=C/C(C)CC)C(=O)NC(C(=O)NC(C)(C)C(=O)NC(CC(C)C)C(=O)NC(CC(C)C)C(=O)NC(C)(C)C(=O)NC(C)(C)C(=O)NCCC(=O)NC(C)CN(C)C)C(O)C(C)C (stereo not drawn) (X10-[ξPro(4ξ-Me)][X11][ξLeu(3ξ-OH)][Aib]LL[Aib][Aib][βAla]-X12; configuration not given here)
TGI [1]: 7700 nM | TGI [13]: 3620 nM | TGI [26]: 11300 nM | TGI [28]: 17000 nM | TGI [36]: 1090 nM

— PubChem BioAssay (NCI)
